Data on eleven molecules can be found in PubChem BioAssay (NCI).

Among the test systems are SF-268 CNS; SN12C renal; NCI-H460 lung; HCC-2998 colon; NCI-H23 lung; UACC-62 melanoma; SW-620 colon; SF-539 CNS; MALME-3M melanoma.
What all share (assay): growth of human tumour cells (NCI), 48 h

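Grown in 96-well plates, cells were treated for 48 hours with each compound at five concentrations. Insufficient inhibition: endpoint recorded as highest concentration tested. Abbreviation: GI50, concentration required for 50% inhibition of growth. Definition used: TGI = concentration required for complete inhibition of growth.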

For the molecule `COc1ccc(OC)c(-c2cc(-c3ccc(Cl)cc3)nn2-c2ccc(S(=O)(=O)NC(C)=O)cc2)c1`, the GI50 was 21.1 µM in the experiment with SF-268 CNS; 3.02 µM in the experiment on SN12C renal; 29.3 µM with NCI-H460 lung; 1.71 µM in the experiment with HCC-2998 colon; 11.3 µM in the experiment with NCI-H23 lung; 3.22 µM in the experiment on UACC-62 melanoma. The GI50 in the experiment with SW-620 colon was 5.39 µM. In addition, the TGI in the experiment on SF-268 CNS was 60.9 µM; with SN12C renal, 10.9 µM; with NCI-H460 lung, above 100 µM; with HCC-2998 colon it was 6.93 µM; in the experiment with NCI-H23 lung, 25.6 µM; in the experiment with UACC-62 melanoma, 11.2 µM. Moreover, in the experiment on SW-620 colon, the TGI amounted to 22.2 µM.

`CC(=O)OC1CC2C(C)(C)C(=O)C=C[C@]2(C)C2CCC3(C)C(=CC(=O)C3c3ccoc3)[C@]12C` (stereo partly drawn): the TGI in the experiment on SF-268 CNS was found to be 33.1 µM; in the experiment with SN12C renal it was 32.5 µM; in the experiment on SF-539 CNS, 31.2 µM; in the experiment with NCI-H460 lung it was 34.1 µM; in the experiment with MALME-3M melanoma, 34.4 µM; in the experiment on HCC-2998 colon, 26 µM. In addition, the TGI in the experiment with NCI-H23 lung is 29.5 µM; in the experiment on UACC-62 melanoma it was 31.6 µM; in the experiment on SW-620 colon it was 26 µM.

Regarding `CN(C)C=C1C(Cl)=C(C=O)CC(C=O)=C1Cl`, the TGI with SF-268 CNS was 27.6 µM; with SN12C renal, above 100 µM; in the experiment on SF-539 CNS, 27.9 µM; with NCI-H460 lung, 39.7 µM; with MALME-3M melanoma it was 24.4 µM; in the experiment with HCC-2998 colon, 28.7 µM. In addition, the TGI with NCI-H23 lung turned out to be 37.1 µM; with UACC-62 melanoma, 32.5 µM; in the experiment on SW-620 colon, 7.3 µM.

Take `COc1nc(N)nc2c1ncn2C1OC(CO)C(O)C1O` (stereo not drawn): the GI50 with SF-268 CNS is above 5000 µM; with SN12C renal it was 3280 µM; in the experiment on SF-539 CNS it was 3800 µM; in the experiment on NCI-H460 lung, 1650 µM; in the experiment with MALME-3M melanoma it was 1150 µM; with HCC-2998 colon it was above 5000 µM. Moreover, the GI50 with NCI-H23 lung was 909 µM; with UACC-62 melanoma it was above 5000 µM; in the experiment on SW-620 colon it was above 5000 µM. For the same molecule, the TGI with SF-268 CNS, in the experiment on SN12C renal, in the experiment on SF-539 CNS, in the experiment with NCI-H460 lung, with MALME-3M melanoma and in the experiment on HCC-2998 colon was above 5000 µM in each case. In addition, the TGI in the experiment with NCI-H23 lung, with UACC-62 melanoma and in the experiment with SW-620 colon was above 5000 µM in each case.

Consider `CCc1cccc(CC)c1NC(=O)C1=C(C)NC(C)=C(C(=O)Nc2c(CC)cccc2CC)C1c1ccc([N+](=O)[O-])cc1`, for which the TGI was above 100 µM with SF-268 CNS; above 100 µM in the experiment on SN12C renal; 39.8 µM in the experiment on SF-539 CNS; 45 µM with NCI-H460 lung; 46.8 µM in the experiment on MALME-3M melanoma; above 100 µM with HCC-2998 colon. Also, the TGI with NCI-H23 lung is above 100 µM; in the experiment with SW-620 colon, 59.1 µM.

With `Cc1cc(Cl)ccc1NC(=O)C(=O)C(C(=O)c1ccc2ccccc2c1)C1OC(=O)c2ccccc21` (stereo not drawn), the TGI came to 60.5 µM in the experiment with SF-268 CNS; 37.4 µM in the experiment with SN12C renal; 17.4 µM in the experiment with SF-539 CNS; 60.8 µM in the experiment on NCI-H460 lung; 22.8 µM with MALME-3M melanoma; 22.2 µM in the experiment on HCC-2998 colon. Also, the TGI in the experiment on NCI-H23 lung turned out to be 26.3 µM; with UACC-62 melanoma, 24 µM; in the experiment with SW-620 colon, 84.6 µM.

On to `CCOC(=O)CC1C(COC(=O)NC)OC(n2cnc3c(NC(=O)Nc4ccccc4)ncnc32)C1O[Si](C)(C)C(C)(C)C` (stereo not drawn), for which the GI50 is 5.06 µM in the experiment on SF-268 CNS; 2.17 µM with SN12C renal; 11.5 µM in the experiment with SF-539 CNS; 4.45 µM with NCI-H460 lung; 3.34 µM in the experiment on MALME-3M melanoma; 8.76 µM in the experiment on HCC-2998 colon. For the same molecule, the values for the GI50 in the experiment on NCI-H23 lung, in the experiment with UACC-62 melanoma and in the experiment with SW-620 colon were 12.9 µM, 15.8 µM and 4.59 µM, respectively. Moreover, the TGI with SF-268 CNS is 33.8 µM; in the experiment with SN12C renal, 5.19 µM; with SF-539 CNS, 26.4 µM; in the experiment with NCI-H460 lung, 17.2 µM; with MALME-3M melanoma, 33.1 µM; with HCC-2998 colon, 28.8 µM. Besides, the TGI in the experiment on NCI-H23 lung is 53 µM; in the experiment on UACC-62 melanoma it was above 100 µM; in the experiment on SW-620 colon it was 78.1 µM.

Turning to `Cc1c(C(=O)/C=C/c2ccc(N(C)C)cc2)c(=O)n(-c2ccccc2)n1C`, the TGI with SF-268 CNS, in the experiment on SN12C renal, in the experiment on SF-539 CNS, in the experiment with NCI-H460 lung, in the experiment with MALME-3M melanoma and with HCC-2998 colon was above 100 µM throughout. In addition, the TGI with NCI-H23 lung, in the experiment with UACC-62 melanoma and in the experiment with SW-620 colon was above 100 µM each time.

For `O=Cc1ccc(-c2ccc(-c3nc4ccccc4o3)cc2)o1`, the GI50 is 29.6 µM with SF-268 CNS; 32.3 µM in the experiment on SF-539 CNS; 39.6 µM with NCI-H460 lung; 24.6 µM with MALME-3M melanoma; 28.6 µM with HCC-2998 colon; 31.8 µM in the experiment on NCI-H23 lung. The GI50 in the experiment on UACC-62 melanoma is 21.7 µM; in the experiment with SW-620 colon, 33 µM. Further, the TGI with SF-268 CNS was above 100 µM; in the experiment on SF-539 CNS it was above 100 µM; in the experiment with NCI-H460 lung it was above 100 µM; in the experiment with MALME-3M melanoma, 65 µM; in the experiment on HCC-2998 colon it was 76.4 µM; with NCI-H23 lung it was above 100 µM. In addition, the TGI is 63.3 µM with UACC-62 melanoma and above 100 µM with SW-620 colon.

Regarding `COC(=O)C1[C@H](c2cc(OC)c(OC)c(OC)c2)OC(=O)C1(C(=O)OC)C(=O)c1ccc2c(c1)OCO2` (stereo partly drawn), the TGI in the experiment on SF-268 CNS, with SN12C renal, in the experiment on SF-539 CNS, in the experiment on NCI-H460 lung, in the experiment with MALME-3M melanoma and in the experiment on HCC-2998 colon was above 100 µM throughout. The TGI in the experiment on NCI-H23 lung, with UACC-62 melanoma and in the experiment with SW-620 colon was above 100 µM throughout.

For the molecule `Cc1cc(N(CCC#N)S(C)(=O)=O)ccc1C=Nc1ccc(C(=O)NN2C(=O)/C(=C/c3ccc(N(CCC#N)CCC#N)cc3C)N=C2c2cc([N+](=O)[O-])ccc2Cl)cc1`, the TGI in the experiment on SF-268 CNS, with SN12C renal, with SF-539 CNS, with NCI-H460 lung, in the experiment on MALME-3M melanoma and with HCC-2998 colon was above 100 µM each time. For the same molecule, the TGI with NCI-H23 lung, with UACC-62 melanoma and in the experiment on SW-620 colon was above 100 µM in each case.
